Data set [1] in a line: EZ4U colorimetric cytotoxicity test, HEK293A. It is filed as cell-based. To be noted: human. From the text:
(§1) The low intrinsic cytotoxicity of the additional drug component in the clinically used anticancer cocktails with traditional drugs is very important for treatment. This approach in chemotherapy can reduce the potential resulting toxic load on the body in the case of a combined action of these inhibitors on the activity of several targets. […] The effects of the tested compounds on cell survival are shown on Figure 4 and the CC50 values for three cell lines are shown in Table 1. The intrinsic cytotoxicity of a number of the studied compounds is quite high, namely, they have close IC50 values against the TDP1 and CC50 values on one or several studied cell lines. Most of the compounds generally were more toxic for the HEK293FT and HeLa cell lines than for the HEK293A cell line (Table 1 and Figure 4). The cytotoxicity of the three leader compounds, 7g, 10a, and 7h, was quite high. […] Compound 10b was one of the least toxic among the ten tested compounds.
(§2) Cytotoxicity of the compounds was examined against human cell lines HEK293A (human embryonic kidney)—WT, TDP1 deficient (Tdp1-/-), PARP1 deficient (PARP1-/-), and HeLa (cervical cancer) using an EZ4U colorimetric test (Biomedica, Vienna, Austria). The HEK293A cell line was obtained from Thermo Fisher Scientific (Waltham, MA, USA), and the HeLa cell line was obtained from the Russian Cell Culture Collection (RCCC) Institute of Cytology RAS, St. Petersburg, Russia. The cells were grown in DMEM/F12 medium (Gibco, Thermo Fisher Scientific, Waltham, MA, USA), with 1x GlutaMAX (Gibco, Thermo Fisher Scientific, Waltham, MA, USA), 50 IU/mL penicillin, 50 μg/mL streptomycin (MP Biomedicals), and in the presence of 10% fetal bovine serum (Biolot, Saint-Petersburg, Russia) in a 5% CO2 atmosphere. Cells were grown in the presence of 1% DMSO in the control wells. After the formation of a 30–50% monolayer, the tested compounds were added to the medium, and the cell culture was monitored for 3 days. The values were normalized to their own control in each case. At least three independent experiments were carried out. The 50% cytotoxic concentration (CC50) was defined as the compound concentration that reduced the cell viability by 50% when compared to the untreated controls. The compound concentration that caused 50% cell growth inhibition was determined using OriginPro 8.6.0 software (OriginLab, Northampton, MA, USA). The measurements were carried out in three independent experiments.

Data set [2] relates to HeLa cells. The data set can be described thus: EZ4U colorimetric cytotoxicity test, HeLa. In kind it is cell-based, human. Conditions: Homo sapiens; HeLa, only Tpc.
Excerpt: as §1, §2

The subject of data set [3] is HeLa cells. The data set can be described thus: Cytotoxicity of the combination of 10a and topotecan on HeLa cells. In kind it is cell-based, human. Conditions: Homo sapiens; HeLa, Tpc titrated with fixed 5 μM 10a; read-out: CC50 of Tpc with 10a.
Excerpt: TDP1 is able to cleave the TOP1–DNA complex, thus preventing the action of Tpc and decreasing the efficiency of this clinically used drug. The inhibition of TDP1 activity can increase the efficiency of Tpc. Next, we checked the cytotoxic effect of the combination of Tpc and examined the TDP1 inhibitors compared to Tpc alone on HeLa cells and HEK293 cells.
We observed the suppressed cell growth in the joint presence of the TDP1 inhibitor and Tpc on HeLa cells compared to Tpc alone (Figure 5). We observed the synergistic effect both when we titrated 10a with addition of fixed Tpc (1 μM or 2 μM) and vice versa when we titrated Tpc with addition of fixed 10a (5 μM). […] The CC50 value of Tpc decreased from 2 μM (only Tpc) to 0.7 μM (Tpc with 5 μM 10a).
as §2, with “The 50% cytotoxic concentration (CC50) was defined as the compound concentration that reduced the cell viability by 50% when compared to the untreated controls.” left out, “The measurements were carried out in three independent experiments.” left out

Data set [4] in a line: Colorimetric cytotoxicity test, HEK293A PARP1-/-. It is filed as cell-based. Conditions: human, PARP1-/- HEK293A cells; PARP1-/- HEK293A cell line; read-out: CC50 of Tpc. From the text:
In our previous works, we checked the cytotoxic effect of Tpc and the TDP1 inhibitors—monoterpene 3-carene-derived compounds [48, 49] and UA combined with monoterpenoids, measured separately and jointly with Tpc—using a panel of HEK293FT and HEK293A Tdp1 knockout isogenic clones. […] The data on the HEK293FT mutants were of low reproducibility, which is why we decided to change the basic cell line to HEK293A [49]. In this work, we created new PARP1-/- HEK293A cells using the CRISPR–Cas9 approach (Figure S27). […] We checked the intrinsic cytotoxicity of the leader compound (10a) on the HEK293 wild type and TDP1-/- and PARP1-/- cell lines using a colorimetric test (Figure 6). […] There was no difference between the WT and mutant cells.
Cytotoxicity of the compounds was examined against human cell lines HEK293A (human embryonic kidney)—WT, TDP1 deficient (Tdp1-/-), PARP1 deficient (PARP1-/-), and HeLa (cervical cancer) using an EZ4U colorimetric test (Biomedica, Vienna, Austria). […] After the formation of a 30–50% monolayer, the tested compounds were added to the medium, and the cell culture was monitored for 3 days. […] The compound concentration that caused 50% cell growth inhibition was determined using OriginPro 8.6.0 software (OriginLab, Northampton, MA, USA). […]

Data set [5] deals with TDP1. Also noted: method as in PMID 27933897, PMID 30076000, PMID 31619021, doi:10.1134/S1068162017010125, PMID 30396105. To be noted: cited from earlier work.
Data set [6] deals with T1, TDP1 (Homo sapiens, UniProt Q9NUW8).
T1 construct: made in house; host or cells: E. coli
Nature of the data set: Real-time fluorescence assay of TDP1 activity. To be noted: real-time fluorescent assay, 1.5 nM TDP1, 50 nM oligonucleotide; read-out: IC50 (TDP1). In kind it is biochemical. From the text:
We tested UA and all 14 newly synthesized UA derivatives for their TDP1 inhibitory properties by measuring their IC50 values using a real-time fluorescent assay. […] Compounds 10a,b are sulfoxide analogs of 7g,h.
(§3) Human recombinant tyrosyl-DNA phosphodiesterase 1 (TDP1) and human recombinant poly(ADP-ribose)-polymerase1 (PARP1) were expressed in the E. coli system and purified as described.
The biosensor (5′-[FAM] AAC GTC AGGGTC TTC C [BHQ]-3′) was synthesized in the Laboratory of Nucleic Acid Chemistry at the Institute of Chemical Biology and Fundamental Medicine (Novosibirsk, Russia) and was used for TDP1 enzyme activity real-time fluorescence detection. The reaction mixture (200 μL) contained a TDP1 reaction buffer (50 mM Tris-HCl, pH 8.0, 50 mM NaCl, and 7 mM β-mercaptoethanol), 50 nM oligonucleotide, varied concentrations of the tested compounds, and purified TDP1 in a final concentration 1.5 nM. The reaction mixtures were incubated at a constant temperature of 26 °C in a POLARstar OPTIMA fluorimeter (BMG LABTECH, GmbH, Ortenberg, Germany). Fluorescence intensity was measured (Ex485/Em520 nm) every 1 min for 10 min. The average values of the half maximal inhibitory concentration (IC50) were determined using an eleven-point concentration response curve and calculated using MARS Data Analysis 2.0 (BMG LABTECH). The 50% inhibitory concentration (IC50) was defined as the concentration of the compound that inhibited 50% of the enzyme activity when compared to the untreated controls. At least three independent experiments were carried out to obtain the IC50 values. To determine the kinetic parameters of the TDP1 enzymatic reaction, the apparent maximum rate of enzymatic reaction (Vmax), Michaelis constant (KM), possible inhibition mechanism, and steady-state kinetic experiments were carried out at 5 fixed concentrations of the substrate, with variation in the inhibitor concentrations. The standard reaction mixtures (200 μL) contained reaction buffer components; 50 nM, 100 nM, 200 nM, 500 nM, or 1000 nM substrate; an inhibitor; and 1.5 nM recombinant human TDP1. The initial kinetic curves were obtained in three independent experiments and statistically processed in OriginPro 8.6.0 (OriginLab, Northampton, MA, USA).

Data set [7] can be described thus: Colorimetric cytotoxicity test, HEK293FT. In kind it is cell-based. To be noted: human, HEK293FT cells, intrinsic cytotoxicity.
Excerpt: as §1, §2

Data set [8] can be described thus: EZ4U colorimetric cytotoxicity test, HeLa. In kind it is cell-based, human. To be noted: human, HeLa cells; intrinsic cytotoxicity, compound alone, 3 days.
Excerpt: as §1, §2

The next data set deals with T2, PARP1 (Homo sapiens, UniProt P09874).
T2 construct: made in house; host or cells: E. coli
Nature of the data set: PARP1 autopoly(ADP-ribosyl)ation assay with [32P]-NAD+. In kind it is biochemical. To be noted: 0.5 mM concentration of the compound; read-out: PARP1 residual activity. How it is done: The next step of our study was to test the inhibitors for their ability to inhibit PARP1 and PARP2. UA and the 14 synthesized compounds were tested for the suppression of the ability of PARP1 and PARP2 to include a radioactive label into the acid-insoluble reaction product, poly(ADP-ribose) (PAR). […] The best effect we observed was for 9; the residual activity was 40 ± 5% under the reaction conditions (0.5 mM concentration of the compound), indicated in Materials and Methods.
as §3
The radioactive labeled [32P]-NAD+ was synthesized from α–[32P]-ATP according to [55]. The reaction of autopoly(ADP-ribosyl)ation was carried out as follows: for PARP1, 50 mM Tris-HCl, pH 8.0, 10 mM MgCl2, 150 mM NaCl, and 7 mM β-mercaptoethanol, as well as activated DNA 2 oe/mL, 0.3 mM [^32P]-NAD+ at 37 °C. The reaction was initiated by adding PARP1 to 200 nM and the reaction mixtures were incubated for 2 min. For PARP2: 50 mM Tris-HCl, pH 8.0, 3 mM spermin, 150 mM NaCl, and 7 mM β-mercaptoethanol, as well as activated DNA 2 oe/mL, 0.6 mM [^32P] NAD+ at 37 °C. […] The incorporation of radioactivity into the product was calculated using a Typhoon FLA 9500 scanner (GE Healthcare, Chicago, IL, USA). […]

Each structure is given as a SMILES string.

For orientation: CC50 means the concentration that lowers cell viability or growth by half. Broadly, the IC50 is the concentration that inhibits the measured activity by half.

T2 sequence (P09874 whole entry): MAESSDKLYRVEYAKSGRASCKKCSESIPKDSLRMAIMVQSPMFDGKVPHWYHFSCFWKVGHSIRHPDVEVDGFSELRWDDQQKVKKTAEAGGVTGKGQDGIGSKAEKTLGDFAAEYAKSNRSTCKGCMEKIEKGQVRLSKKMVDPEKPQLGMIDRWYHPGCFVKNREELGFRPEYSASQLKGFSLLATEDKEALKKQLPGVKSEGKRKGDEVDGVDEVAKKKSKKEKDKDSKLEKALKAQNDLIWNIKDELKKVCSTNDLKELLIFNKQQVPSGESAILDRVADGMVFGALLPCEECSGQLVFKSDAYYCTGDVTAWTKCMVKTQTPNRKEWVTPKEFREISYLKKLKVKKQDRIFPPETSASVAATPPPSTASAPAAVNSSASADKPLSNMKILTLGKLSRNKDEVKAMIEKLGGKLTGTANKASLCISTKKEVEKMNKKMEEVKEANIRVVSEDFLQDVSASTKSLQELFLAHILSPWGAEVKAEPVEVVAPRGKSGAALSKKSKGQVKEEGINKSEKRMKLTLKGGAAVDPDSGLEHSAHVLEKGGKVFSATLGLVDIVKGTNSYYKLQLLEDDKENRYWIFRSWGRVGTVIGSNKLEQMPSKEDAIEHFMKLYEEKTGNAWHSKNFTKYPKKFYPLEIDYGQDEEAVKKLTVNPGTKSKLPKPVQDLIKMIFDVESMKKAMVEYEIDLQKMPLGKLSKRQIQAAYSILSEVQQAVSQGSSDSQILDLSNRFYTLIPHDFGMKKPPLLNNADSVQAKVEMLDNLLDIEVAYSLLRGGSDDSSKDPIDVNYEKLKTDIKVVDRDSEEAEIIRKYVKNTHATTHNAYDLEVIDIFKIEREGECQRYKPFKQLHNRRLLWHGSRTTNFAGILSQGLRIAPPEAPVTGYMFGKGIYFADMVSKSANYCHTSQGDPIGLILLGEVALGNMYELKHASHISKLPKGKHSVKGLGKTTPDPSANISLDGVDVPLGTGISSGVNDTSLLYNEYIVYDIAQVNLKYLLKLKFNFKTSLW
T1 sequence (Q9NUW8 whole entry): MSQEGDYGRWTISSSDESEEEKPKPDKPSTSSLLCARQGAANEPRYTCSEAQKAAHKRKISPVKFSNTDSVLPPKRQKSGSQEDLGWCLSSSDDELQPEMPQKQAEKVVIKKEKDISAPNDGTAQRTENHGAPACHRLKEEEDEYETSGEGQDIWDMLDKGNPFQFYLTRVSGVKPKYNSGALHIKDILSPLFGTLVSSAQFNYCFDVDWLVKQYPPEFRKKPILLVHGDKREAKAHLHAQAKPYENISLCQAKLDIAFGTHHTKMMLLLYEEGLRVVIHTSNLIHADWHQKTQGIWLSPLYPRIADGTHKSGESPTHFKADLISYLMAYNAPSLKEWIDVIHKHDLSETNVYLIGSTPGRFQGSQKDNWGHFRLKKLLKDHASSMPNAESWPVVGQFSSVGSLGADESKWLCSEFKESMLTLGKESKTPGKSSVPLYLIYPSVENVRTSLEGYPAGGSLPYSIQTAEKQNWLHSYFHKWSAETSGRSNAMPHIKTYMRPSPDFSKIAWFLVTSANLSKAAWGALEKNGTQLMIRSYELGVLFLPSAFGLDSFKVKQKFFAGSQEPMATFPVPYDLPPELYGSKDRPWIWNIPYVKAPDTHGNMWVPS

For `CC[C@@]1(O)C(=O)OCc2c1cc1n(c2=O)Cc2cc3c(CN(C)C)c(O)ccc3nc2-1` [Tpc, topotecan, reference compound], the CC50 at 3 days in data set [1] (wild-type HEK293A cells, WT HEK293A cells, read-out: CC50 of Tpc) was 0.027 ± 0.004 µM; in [4] it was 0.05 ± 0.005 µM. Moreover, the cytotoxic concentration (CC50) in the data set on HeLa cells [2] came out at 2 µM; in the data set on HeLa cells [3] it was 0.7 µM.

Regarding `CC(=O)c1c(O)c(C)c(O)c2c1OC1=CC(=O)/C(=C(/C)NCCCc3cc(C(C)(C)C)c(O)c(C(C)(C)C)c3)C(=O)[C@@]12C` [compound 2], the half-maximal inhibitory concentration (IC50) in the data set with TDP1 [5] was 0.16 µM.

`CC(=O)C1=C(O)C=C2Oc3c(C(=O)CSC(N)=O)c(O)c(C)c(O)c3[C@@]2(C)C1=O` [compound 9, (2R)-4-acetyl-10-[2-(carbamoylsulfanyl)acetyl]-5,11,13-trihydroxy-2,12-dimethyl-8-oxatricyclo[7.4.0.0^2,7]trideca-1(13),4,6,9,11-pentaen-3-one]: on TDP1 [6], the IC50 worked out at 6.6 ± 1 µM. Also, the CC50 at 3 days in [1] (HEK293A cells, intrinsic cytotoxicity, 3 days, read-out: HEK293A CC50) was greater than 50 µM; in data set [7] it was 7 ± 2 µM; in data set [8], 13 ± 1 µM. In addition, the remaining activity at 500 µM on PARP1 worked out at 40 ± 5%.

Turning to `CC(=O)C1=C(O)C=C2Oc3c4c(c(C)c(O)c3[C@@]2(C)C1=O)O/C(=C\c1ccc(Br)cc1)C4=O` [compound 3], the 50% inhibitory concentration (IC50) with TDP1 [5] is 0.15 µM.

Consider `CC(=O)C1=C(O)C=C2Oc3c(C(=O)CSC#N)c(O)c(C)c(O)c3[C@@]2(C)C1=O` [compound 5], for which the 50% inhibitory concentration (IC50) in the data set on TDP1 [5] is 1.16 µM.

These data come from PMC8583042, “New Hybrid Compounds Combining Fragments of Usnic Acid and Thioether Are Inhibitors of Human Enzymes TDP1, TDP2 and PARP1” (International Journal of Molecular Sciences, 2021).
